From ChEMBL document CHEMBL4342418, “1,2,3-Triazole-containing hybrids as potential anticancer agents: Current developments, action mechanisms and structure-activity relationships” (Eur J Med Chem, 2019)
In brackets after ≈: the same amount, converted by molar mass. One block for each molecule: values may come before it.

Experiments:
[1] = system: A549; experiment: Antiproliferative activity against human A549 cells by SRB assay; format: functional, cell-based
[2] = system: MCF7-DOX; experiment: Antiproliferative activity against human MCF7/Dox cells by SRB assay; format: functional, cell-based
[3] = system: HeLa; experiment: Antiproliferative activity against human HeLa cells by SRB assay; format: functional, cell-based
[4] = system: HepG2; experiment: Antiproliferative activity against human HepG2 cells by SRB assay; format: functional, cell-based
[5] = system: SK-OV-3; experiment: Antiproliferative activity against human SKOV3 cells by SRB assay; format: functional, cell-based
[6] = system: DU-145; experiment: Antiproliferative activity against human DU145 cells by SRB assay; format: functional, cell-based
[7] = system: MCF7; experiment: Antiproliferative activity against human MCF7 cells by SRB assay; format: functional, cell-based
[8] = system: MCF7; experiment: Antiproliferative activity against human MCF7 cells assessed as reduction in cell viability after 72 hrs by MTT assay; format: functional, cell-based; details: MCF7, 72 h
[9] = system: MOLT-4; experiment: Antiproliferative activity against human MOLT4 cells assessed as reduction in cell viability after 72 hrs by MTT assay; format: functional, cell-based; details: MOLT-4, 72 h
[10] = system: HT-29; experiment: Antiproliferative activity against human HT-29 cells assessed as reduction in cell viability after 72 hrs by MTT assay; format: functional, cell-based; details: HT-29, 72 h
[11] = system: SW480; experiment: Antiproliferative activity against human SW480 cells assessed as reduction in cell viability after 48 hrs by MTT assay; format: functional, cell-based; details: SW480, 48 h
[12] = Antiproliferative activity against human SMCC7721 cells assessed as reduction in cell viability after 48 hrs by MTT assay; format: functional, cell-based
[13] = system: A549; experiment: Antiproliferative activity against human A549 cells assessed as reduction in cell viability after 48 hrs by MTT assay; format: functional, cell-based; details: A549, 48 h
[14] = system: HL-60; experiment: Antiproliferative activity against human HL60 cells assessed as reduction in cell viability after 48 hrs by MTT assay; format: functional, cell-based; details: HL-60, 48 h
[15] = system: MDA-MB-231; experiment: Antiproliferative activity against human MDA-MB-231 cells by MTT assay; format: functional, cell-based
[16] = system: HEK293; experiment: Cytotoxicity against HEK293 cells by MTT assay; format: cell-based; details: Homo sapiens
[17] = system: HT-29; experiment: Antiproliferative activity against human HT-29 cells assessed as reduction in cell viability after 48 hrs by MTT assay; format: functional, cell-based; details: HT-29, 48 h
[18] = system: HCT-116; experiment: Antiproliferative activity against human HCT116 cells assessed as reduction in cell viability after 48 hrs by MTT assay; format: functional, cell-based; details: HCT-116, 48 h
[19] = system: HBL-100; experiment: Antiproliferative activity against human HBL100 cells assessed as reduction in cell viability after 48 hrs by MTT assay; format: functional, cell-based; details: HBL-100, 48 h
[20] = system: MCF7; experiment: Antiproliferative activity against human MCF7 cells assessed as reduction in cell viability after 48 hrs by SRB assay; format: functional, cell-based; details: MCF7, 48 h
[21] = system: A549; experiment: Antiproliferative activity against human A549 cells assessed as reduction in cell viability after 48 hrs by SRB assay; format: functional, cell-based; details: A549, 48 h
[22] = system: HCT-116; experiment: Antiproliferative activity against human HCT116 cells assessed as reduction in cell viability after 48 hrs by SRB assay; format: functional, cell-based; details: HCT-116, 48 h
[23] = system: HT-29; experiment: Antiproliferative activity against human HT-29 cells assessed as reduction in cell viability after 48 hrs by SRB assay; format: functional, cell-based; details: HT-29, 48 h
[24] = system: A549; experiment: cells; format: functional, cell-based; details: Homo sapiens
Description: Antiproliferative activity against human A549 cells by MTT assay

[25] = system: HT-29; experiment: Antiproliferative activity against human HT-29 cells by MTT assay; format: functional, cell-based
[26] = system: MV4-11; experiment: Antiproliferative activity against human MV4-11 cells by MTT assay; format: functional, cell-based
[27] = system: MCF7; experiment: cells; format: functional, cell-based; details: Homo sapiens
Description: Antiproliferative activity against human MCF7 cells by MTT assay

[28] = system: DU-145; experiment: Antiproliferative activity against human DU145 cells by MTT assay; format: functional, cell-based
[29] = system: MCF-10A; experiment: Cytotoxicity against human MCF10A cells by MTT assay; format: cell-based
[30] = system: K562; experiment: Antiproliferative activity against human K562 cells assessed as reduction in cell viability after 72 hrs by MTT assay; format: functional, cell-based; details: K562, 72 h
[31] = system: Caco-2; experiment: Antiproliferative activity against human Caco2 cells assessed as reduction in cell viability after 72 hrs by MTT assay; format: functional, cell-based; details: Caco-2, 72 h
[32] = system: HeLa; experiment: Antiproliferative activity against human HeLa cells assessed as reduction in cell viability after 72 hrs by MTT assay; format: functional, cell-based
[33] = Cytotoxicity against dog MDCK1 cells assessed as reduction in cell viability after 72 hrs by MTT assay; format: cell-based; details: Canis lupus familiaris, MDCK1, 72 h
[34] = system: MCF7; experiment: Antiproliferative activity against human MCF7 cells assessed as reduction in cell viability after 48 hrs by MTT assay; format: functional, cell-based; details: MCF7, 48 h
[35] = system: T47D; experiment: Antiproliferative activity against human T47D cells assessed as reduction in cell viability after 72 hrs by MTT assay; format: functional, cell-based
[36] = system: HepG2; experiment: Antiproliferative activity against human HepG2 cells by MTT assay; format: functional, cell-based
[37] = system: KB; experiment: Antiproliferative activity against human KB cells by MTT assay; format: functional, cell-based
[38] = system: DU-145; experiment: Antiproliferative activity against human DU145 cells assessed as reduction in cell viability after 48 hrs by MTT assay; format: functional, cell-based; details: DU-145, 48 h
[39] = system: HepG2; experiment: Antiproliferative activity against human HepG2 cells assessed as reduction in cell viability after 72 hrs by MTT assay; format: functional, cell-based; details: HepG2, 72 h
[40] = system: A549; experiment: Antiproliferative activity against human A549 cells assessed as reduction in cell viability after 72 hrs by MTT assay; format: functional, cell-based; details: A549, 72 h
[41] = system: HeLa; experiment: Antiproliferative activity against human HeLa cells by MTT assay; format: functional, cell-based

IC50 [1]: 15.5 to 31.5 µM
IC50 [2]: 15.5 to 31.5 µM
IC50 [3]: 15.5 to 31.5 µM
IC50 [4]: 15.5 to 31.5 µM
IC50 [5]: 15.5 to 31.5 µM
IC50 [6]: 15.5 to 31.5 µM
IC50 [7]: 15.5 to 31.5 µM
Structure (SMILES): Cc1ccc2c(c1)/C(=N/O)C(=O)N2CCOCCn1cc(COc2ccc3c(C)cc(=O)oc3c2)nn1

IC50 [8]: 6.8 to 31.7 µM
IC50 [9]: 6.8 to 31.7 µM
IC50 [10]: 6.8 to 31.7 µM
Structure (SMILES): CC(C)(C)c1ccc(Cn2cc(CNC3=CC(=O)c4ccccc4C3=O)nn2)cc1

IC50 [11]: 0.43 to 30.5 µM
IC50 [13]: 0.43 to 30.5 µM
IC50 [14]: 0.43 to 30.5 µM
Structure (SMILES): CCCC(=O)OC[C@H]1O[C@@H](OC(COCc2cn([C@H]3c4cc5c(cc4[C@@H](c4cc(OC)c(O)c(OC)c4)[C@H]4C(=O)OC[C@@H]43)OCO5)nn2)COCc2cn([C@H]3c4cc5c(cc4[C@@H](c4cc(OC)c(O)c(OC)c4)[C@H]4C(=O)OC[C@@H]43)OCO5)nn2)[C@H](OC(=O)CCC)[C@@H](OC(=O)CCC)[C@@H]1OC(=O)CCC (stereo partly drawn)
IC50 [12]: 0.43 to 30.5 µM

IC50 [15]: 12 µM
Structure (SMILES): COC(=O)c1ccc(-n2nc(N)c(C(=O)NCCNC(=O)c3nn(-c4ccc(C(=O)OC)cc4)nc3N)n2)cc1
IC50 [16]: > 50 µM

IC50 [17]: 5.16 to 9.44 µM
IC50 [13]: 5.16 to 9.44 µM
IC50 [18]: 5.16 to 9.44 µM
Structure (SMILES): C[C@@H]1CC[C@@]2(OC1)O[C@H]1C[C@H]3[C@@H]4CC=C5C[C@@H](OCc6cn(-c7ccccc7C#N)nn6)CC[C@]5(C)[C@H]4CC[C@]3(C)[C@H]1[C@@H]2C
IC50 [19]: 5.16 to 9.44 µM

IC50 [20]: 1.76 to 9.46 µM
IC50 [21]: 1.76 to 9.46 µM
IC50 [22]: 1.76 to 9.46 µM
IC50 [23]: 1.76 to 9.46 µM
Structure (SMILES): O=C(/C=C/c1cn(-c2ccccc2)nc1-c1ccccc1)OCc1cn(-c2ccc([N+](=O)[O-])cc2)nn1

IC50 [30]: 9.7 to 81.9 µM
IC50 [31]: 9.7 to 81.9 µM
IC50 [32]: 9.7 to 81.9 µM
Structure (SMILES): COc1ccccc1-c1cn(Cc2cc(=O)oc3cc(O)c(O)cc23)nn1
IC50 [33]: 36.7 to 46 µM

IC50 [17]: 10.8 to 13.3 µM
IC50 [13]: 10.8 to 13.3 µM
IC50 [18]: 10.8 to 13.3 µM
Structure (SMILES): C[C@@H]1CC[C@@]2(OC1)O[C@H]1C[C@H]3[C@@H]4CC=C5C[C@@H](O)CC[C@]5(C)[C@H]4CC[C@]3(C)[C@H]1[C@@H]2C [DISOGENIN]
IC50 [19]: 10.8 to 13.3 µM

The next lines start with the molecule.

Structure (SMILES): C=CCC1CN2CCC1CC2[C@H](O)c1ccnc2ccc(-c3cn(-c4ccccc4)nn3)cc12 (stereo partly drawn)
IC50 [24]: 0.53 to 14.6 µM
IC50 [25]: 0.53 to 14.6 µM
IC50 [26]: 0.53 to 14.6 µM
IC50 [27]: 0.53 to 14.6 µM
IC50 [28]: 0.53 to 14.6 µM
IC50 [29]: 0.53 to 14.6 µM

Structure (SMILES): C[C@@H]1CC[C@@]2(OC1)O[C@H]1C[C@H]3[C@@H]4CC=C5C[C@@H](OCc6cn(-c7ccccc7[N+](=O)[O-])nn6)CC[C@]5(C)[C@H]4CC[C@]3(C)[C@H]1[C@@H]2C
IC50 [17]: 5.16 to 9.44 µM
IC50 [13]: 5.16 to 9.44 µM
IC50 [18]: 5.16 to 9.44 µM
IC50 [19]: 5.16 to 9.44 µM

Structure (SMILES): C=CCC1CN2CCC1CC2[C@H](O)c1cc(-c2cn(-c3ccc(O)cc3)nn2)nc2ccc(OC)cc12 (stereo partly drawn)
IC50 [24]: 0.53 to 14.6 µM
IC50 [25]: 0.53 to 14.6 µM
IC50 [26]: 0.53 to 14.6 µM
IC50 [27]: 0.53 to 14.6 µM
IC50 [28]: 0.53 to 14.6 µM
IC50 [29]: 0.53 to 14.6 µM

Structure (SMILES): CC[C@@]1(O)C(=O)OCc2c1cc1n(c2=O)Cc2cc3ccccc3nc2-1 [CAMPTOTHECIN]
IC50 [20]: 0.03 to 0.8 µM
IC50 [21]: 0.03 to 0.8 µM
IC50 [22]: 0.03 to 0.8 µM
IC50 [23]: 0.03 to 0.8 µM

Structure (SMILES): COc1cc([C@@H]2c3cc4c(cc3[C@@H](O[C@@H]3O[C@@H]5CO[C@@H](C)O[C@H]5[C@H](O)[C@H]3O)[C@H]3COC(=O)[C@H]23)OCO4)cc(OC)c1O [ETOPOSIDE]
IC50 [11]: 0.31 to 32.8 µM
GI50 [8]: 7.5 µg/mL (≈ 12.7 µM)
IC50 [1]: 6.94 to 50 µM
IC50 [34]: 0.31 to 32.8 µM
IC50 [2]: 6.94 to 50 µM
IC50 [3]: 6.94 to 50 µM
GI50 [35]: 7.9 µg/mL (≈ 13.4 µM)
IC50 [4]: 6.94 to 50 µM
IC50 [12]: 0.31 to 32.8 µM
IC50 [5]: 6.94 to 50 µM
IC50 [13]: 0.31 to 32.8 µM
IC50 [36]: 11.8 to 15.7 µM
IC50 [6]: 6.94 to 50 µM
IC50 [37]: 11.8 to 15.7 µM
IC50 [38]: 9.8 µM
IC50 [14]: 8.12 to 32.8 µM
IC50 [7]: 6.94 to 50 µM

Structure (SMILES): COc1cc2c(Oc3ccc(NC(=O)C4(C(=O)Nc5ccc(F)cc5)CC4)cc3F)ccnc2cc1OCCCN1CCOCC1 [FORETINIB]
IC50 [8]: 2.4 to 4.7 µM
IC50 [39]: 2.4 to 4.7 µM
IC50 [40]: 2.4 to 4.7 µM

Structure (SMILES): CC/C(=C(\c1ccccc1)c1ccc(OCCN(C)C)cc1)c1ccccc1 [TAMOXIFEN]
IC50 [15]: 11.2 µM
IC50 [24]: 10.9 to 18.6 µM
IC50 [41]: 10.9 to 18.6 µM
IC50 [16]: > 50 µM
IC50 [27]: 10.9 to 18.6 µM
IC50 [28]: 10.9 to 18.6 µM
